From PMC6631481, “De Novo Design and In Vitro Testing of Antimicrobial Peptides against Gram-Negative Bacteria” (Pharmaceuticals, 2019)
No end group written: not given here.

Test system: Escherichia coli ATCC 25922
Type: cell-based
Method: The MICs of the designed cationic peptides against Escherichia coli ATCC 25,922 strains were determined by the broth microdilution method, as described by Hancock et al.. All MIC evaluations were performed using Luria Bertani (LB) medium. Briefly, a range of each peptide concentrations (100 µg/mL, 50 µg/mL, 25 µg/mL, 12.5 µg/mL, 6.25 µg/mL, 3.125 µg/mL) was prepared by serial dilution in NaCl-depleted LB medium and added to an equal volume (250 µl) of exponentially grown bacterial culture, so that final bacterial suspension contained 5 × 10^5 CFU/mL. The samples were incubated in 2 mL polypropylene microtubes at 37 °C overnight at 300 rpm. The MIC was defined as the concentration at which no microbial growth was detected spectrophotometrically, via readings of optical density (OD) at 600 nm (Biotek ELX800 microplate reader). Growth medium containing only bacterial cells was used as a negative control. Each MIC test was carried out in two replicates and repeated three times.

Substance	MIC At NaCl	MIC Without NaCl
IRRWRLHWFRRAI-NH2 [SP11]	12.5 to 25 µg/mL	3.125 to 6.25 µg/mL
GIKIRKLFKKLLR-NH2 [SP2]	6.25 to 12.5 µg/mL	3.125 to 6.25 µg/mL
AKVLKISRRAFRK-NH2 [SP10]	>100 µg/mL	25 to 50 µg/mL
IRRRIRLIVRRQI-NH2 [SP12]	12.5 to 25 µg/mL	1.56 to 3.125 µg/mL
KVWSRLRKIFSTR-NH2 [SP9]	6.25 to 12.5 µg/mL	3.125 to 6.25 µg/mL
NAMRGAKRVWRHI-NH2 [SP7]	>100 µg/mL	50 to 100 µg/mL
IRPAKLRWFKKIK-NH2 [SP5]	>100 µg/mL	12.5 to 25 µg/mL
KFRKFGKQVWVRL-NH2 [SP8]	12.5 to 25 µg/mL	3.125 to 6.25 µg/mL
RWIRWVWRKKLR-NH2 [SP15]	3.125 to 6.25 µg/mL	0.78 to 1.56 µg/mL
